PubChem BioAssay (NCI)
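Where inhibition never reached the appropriate level, the endpoint shown equals the highest concentration tested. Otherwise, values were interpolated linearly from a five-concentration, 48-hour dose response in 96-well plates. GI50 marks 50% less growth. TGI is the concentration that stops growth completely.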

Tests used:
Test in all cases: NCI tumour cell line growth inhibition, 48 h
OVCAR-5 ovarian = test system: OVCAR-5 ovarian
ACHN renal = test system: ACHN renal
SK-MEL-28 melanoma = test system: SK-MEL-28 melanoma
SK-MEL-5 melanoma = test system: SK-MEL-5 melanoma
K-562 leukemia = test system: K-562 leukemia
NCI-H460 lung = test system: NCI-H460 lung
SN12C renal = test system: SN12C renal
HCC-2998 colon = test system: HCC-2998 colon
HS 578T breast = test system: HS 578T breast
MALME-3M melanoma = test system: MALME-3M melanoma
RPMI-8226 leukemia = test system: RPMI-8226 leukemia
M14 melanoma = test system: M14 melanoma
CAKI-1 renal = test system: CAKI-1 renal
CCRF-CEM leukemia = test system: CCRF-CEM leukemia
SK-OV-3 ovarian = test system: SK-OV-3 ovarian
UACC-257 melanoma = test system: UACC-257 melanoma
HT29 colon = test system: HT29 colon
LOX IMVI melanoma = test system: LOX IMVI melanoma
SK-MEL-2 melanoma = test system: SK-MEL-2 melanoma
HCT-15 colon = test system: HCT-15 colon
A549 NSCLC = test system: A549 NSCLC
NCI-H522 lung = test system: NCI-H522 lung
SF-268 CNS = test system: SF-268 CNS
OVCAR-4 ovarian = test system: OVCAR-4 ovarian
SF-295 CNS = test system: SF-295 CNS
DU-145 prostate = test system: DU-145 prostate
OVCAR-8 ovarian = test system: OVCAR-8 ovarian
HCT-116 colon = test system: HCT-116 colon
UACC-62 melanoma = test system: UACC-62 melanoma
SNB-75 CNS = test system: SNB-75 CNS
HL-60(TB) leukemia = test system: HL-60(TB) leukemia
SNB-19 CNS = test system: SNB-19 CNS
U251 CNS = test system: U251 CNS
SF-539 CNS = test system: SF-539 CNS
A498 renal = test system: A498 renal
T-47D breast = test system: T-47D breast
NCI-H23 lung = test system: NCI-H23 lung
BT-549 breast = test system: BT-549 breast
MDA-MB-231 breast = test system: MDA-MB-231 breast
SW-620 colon = test system: SW-620 colon
TK-10 renal = test system: TK-10 renal
COLO 205 colon = test system: COLO 205 colon
786-0 renal = test system: 786-0 renal
RXF 393 renal = test system: RXF 393 renal
MCF7 breast = test system: MCF7 breast
EKVX NSCLC = test system: EKVX NSCLC
IGROV1 ovarian = test system: IGROV1 ovarian
UO-31 renal = test system: UO-31 renal
MOLT-4 leukemia = test system: MOLT-4 leukemia
OVCAR-3 ovarian = test system: OVCAR-3 ovarian
PC-3 prostate = test system: PC-3 prostate
NCI/ADR-RES ovarian = test system: NCI/ADR-RES ovarian
HOP-92 NSCLC = test system: HOP-92 NSCLC
KM12 colon = test system: KM12 colon
MDA-MB-435 = test system: MDA-MB-435
HOP-62 NSCLC = test system: HOP-62 NSCLC
NCI-H226 lung = test system: NCI-H226 lung

## C=C(C)[C@@H]1CC[C@]2(COC(C)=O)CC[C@]3(C)[C@H](CC[C@@H]4[C@@]5(C)CCCN(C(C)=O)C(C)(C)[C@@H]5CC[C@]43C)[C@@H]12
OVCAR-5 ovarian
  GI50: 1.66 µM
  TGI: 3.19 µM
ACHN renal
  GI50: 1.7 µM
  TGI: 3.07 µM
SK-MEL-28 melanoma
  GI50: 1.82 µM
  TGI: 3.33 µM
SK-MEL-5 melanoma
  GI50: 1.78 µM
  TGI: 3.19 µM
K-562 leukemia
  GI50: 1.58 µM
  TGI: 4.14 µM
NCI-H460 lung
  GI50: 1.9 µM
  TGI: 3.72 µM
SN12C renal
  GI50: 1.75 µM
  TGI: 3.33 µM
HCC-2998 colon
  GI50: 1.67 µM
  TGI: 3.16 µM
HS 578T breast
  GI50: 1.85 µM
  TGI: 4.05 µM
MALME-3M melanoma
  GI50: 1.57 µM
  TGI: 3.05 µM
RPMI-8226 leukemia
  GI50: 1.98 µM
  TGI: 4.19 µM
M14 melanoma
  GI50: 1.9 µM
  TGI: 3.92 µM
CAKI-1 renal
  GI50: 1.58 µM
  TGI: 2.96 µM
CCRF-CEM leukemia
  GI50: 1.87 µM
  TGI: 4.95 µM
SK-OV-3 ovarian
  GI50: 1.97 µM
  TGI: 4.19 µM
UACC-257 melanoma
  GI50: 1.74 µM
  TGI: 3.31 µM
HT29 colon
  GI50: 1.52 µM
  TGI: 2.95 µM
LOX IMVI melanoma
  GI50: 1.45 µM
  TGI: 2.76 µM
SK-MEL-2 melanoma
  GI50: 1.88 µM
  TGI: 3.54 µM
HCT-15 colon
  GI50: 1.65 µM
  TGI: 3.05 µM
A549 NSCLC
  GI50: 1.69 µM
  TGI: 3.23 µM
NCI-H522 lung
  GI50: 1.65 µM
  TGI: 3.24 µM
SF-268 CNS
  GI50: 3.37 µM
  TGI: 13.5 µM
OVCAR-4 ovarian
  GI50: 1.57 µM
  TGI: 3.13 µM
SF-295 CNS
  GI50: 1.69 µM
  TGI: 3.12 µM
DU-145 prostate
  GI50: 1.75 µM
  TGI: 3.29 µM
OVCAR-8 ovarian
  GI50: 1.84 µM
  TGI: 3.42 µM
HCT-116 colon
  GI50: 1.77 µM
  TGI: 3.31 µM
UACC-62 melanoma
  GI50: 1.79 µM
  TGI: 3.23 µM
SNB-75 CNS
  GI50: 1.48 µM
  TGI: 2.88 µM
HL-60(TB) leukemia
  GI50: 1.9 µM
  TGI: 3.82 µM
SNB-19 CNS
  GI50: 1.81 µM
  TGI: 3.27 µM
U251 CNS
  GI50: 1.69 µM
  TGI: 3.15 µM
SF-539 CNS
  GI50: 1.67 µM
  TGI: 3.06 µM
A498 renal
  GI50: 9.84 µM
  TGI: 23.4 µM
T-47D breast
  GI50: 1.63 µM
  TGI: 3.22 µM
NCI-H23 lung
  GI50: 1.89 µM
  TGI: 3.53 µM
BT-549 breast
  GI50: 2.41 µM
  TGI: 6.41 µM
MDA-MB-231 breast
  GI50: 1.75 µM
  TGI: 3.46 µM
SW-620 colon
  GI50: 1.75 µM
  TGI: 3.47 µM
TK-10 renal
  GI50: 1.71 µM
  TGI: 3.18 µM
COLO 205 colon
  GI50: 1.19 µM
  TGI: 2.55 µM
786-0 renal
  GI50: 1.75 µM
  TGI: 3.22 µM
RXF 393 renal
  GI50: 1.59 µM
  TGI: 3.02 µM
MCF7 breast
  GI50: 1.45 µM
  TGI: 3.13 µM
EKVX NSCLC
  GI50: 1.58 µM
  TGI: 3.2 µM
IGROV1 ovarian
  GI50: 1.81 µM
  TGI: 3.37 µM
UO-31 renal
  GI50: 1.38 µM
  TGI: 2.68 µM
MOLT-4 leukemia
  GI50: 1.84 µM
  TGI: 4.2 µM
OVCAR-3 ovarian
  GI50: 1.93 µM
  TGI: 3.75 µM
PC-3 prostate
  GI50: 1.58 µM
  TGI: 3.23 µM
NCI/ADR-RES ovarian
  GI50: 1.89 µM
  TGI: 3.68 µM
HOP-92 NSCLC
  GI50: 1.31 µM
  TGI: 2.7 µM
KM12 colon
  GI50: 1.83 µM
  TGI: 3.42 µM
MDA-MB-435
  GI50: 1.48 µM
  TGI: 2.85 µM
HOP-62 NSCLC
  GI50: 1.69 µM
  TGI: 3.16 µM
NCI-H226 lung
  GI50: 2.2 µM
  TGI: 5.04 µM
